Assay [1] has as its target T1, complex of human CDK4 and cyclin D3 (Homo sapiens, UniProt P11802).
T1 construct: made in house; host or cells: insect cells, co-infected with baculovirus
In words: Inhibition of CDK4/cyclin D retinoblastoma kinase activity (D-type cyclin is D3). Format: biochemical. The following applies: superscript a: D-type cyclin is D3; apparent Ki; read-out: Ki CDK 4/D. The method in brief:
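Apparent Ki derived by fitting background-corrected activity to competitive (or, for tight binders, competitive tight-binding) equations with measured ATP Km. Rb phosphorylation by radiolabelled ATP was measured at 30°C, 20 min standard or 60 min at 5 nM complex for tight binders, via nitrocellulose capture and phosphorimager.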

The target in a further assay is T2, CDK2/cyclin A (Homo sapiens, UniProt P24941).
T2 construct: made in house; host or cells: CDK2: insect cells (baculovirus); cyclin A: E. coli, then limited proteolysis
As to the kind of experiment: Inhibition of CDK2/cyclin A retinoblastoma kinase activity. Format: biochemical. The note with it: read-out: Ki CDK 2/A. The method in brief:
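Baculovirus-expressed CDK2 with excess proteolyzed cyclin A (or purified complex), 150 nM or 5 nM, phosphorylating an Rb fragment with 25 μM [32/33P]ATP, pH 7.4, 30° C, 20 min. Filter-captured radioactivity by phosphorimager; apparent Ki from fits to competitive or tight-binding competitive inhibition using measured ATP Km.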

For assay [2], the target named is T3, human CDK1 (cdc2) and cyclin B (Homo sapiens, UniProt P06493).
T3 construct: purchased New England Biolabs (Beverly Mass.)
T3 sequence (P06493 whole entry): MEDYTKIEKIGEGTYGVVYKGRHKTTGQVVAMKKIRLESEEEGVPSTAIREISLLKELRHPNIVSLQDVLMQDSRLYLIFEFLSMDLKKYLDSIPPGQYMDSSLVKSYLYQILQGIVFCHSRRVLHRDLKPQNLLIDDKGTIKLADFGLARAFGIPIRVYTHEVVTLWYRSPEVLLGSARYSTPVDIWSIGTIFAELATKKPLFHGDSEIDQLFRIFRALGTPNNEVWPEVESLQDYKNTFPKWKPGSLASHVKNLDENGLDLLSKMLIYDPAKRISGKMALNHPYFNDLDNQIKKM
T3 sequence (P14635 whole entry partner): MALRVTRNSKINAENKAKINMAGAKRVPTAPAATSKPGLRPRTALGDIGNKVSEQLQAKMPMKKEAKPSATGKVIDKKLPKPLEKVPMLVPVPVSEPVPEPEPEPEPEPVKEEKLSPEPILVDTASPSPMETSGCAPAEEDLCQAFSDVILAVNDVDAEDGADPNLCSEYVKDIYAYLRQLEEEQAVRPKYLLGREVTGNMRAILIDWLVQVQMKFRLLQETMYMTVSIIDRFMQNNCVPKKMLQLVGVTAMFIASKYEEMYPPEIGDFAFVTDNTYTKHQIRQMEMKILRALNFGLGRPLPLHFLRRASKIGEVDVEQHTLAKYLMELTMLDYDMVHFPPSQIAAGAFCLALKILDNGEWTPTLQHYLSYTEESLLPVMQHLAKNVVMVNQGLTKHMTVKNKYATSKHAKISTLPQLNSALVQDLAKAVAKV
In words: Inhibition of CDK1(cdc2)/cyclin B histone H1 kinase activity. The format is biochemical. The note with it: read-out: Ki CDK 1/B. The method in brief: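 CDK1/cyclin B (commercial, or CDK1/GST-cyclin B1 from co-infected insect cells) phosphorylated histone H1 with 25 μM [32/33P]ATP at pH 7.4, 30° C for 20 min, 2% DMSO. Product captured on phosphocellulose and read by phosphorimager; apparent Ki from competitive or tight-binding fits, with Km for ATP determined.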

A further assay concerns HCT116. As to the kind of experiment: Inhibition of cell growth, MTT assay, HCT116. The format is cell-based, human. The note with it: Homo sapiens, HCT-116. The method in brief: (§1)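 Cells rested 4 h after plating, then exposed to graded compound concentrations in 0.5% (v/v) DMSO for four to six days (cell-type dependent) at 37° C, 5% CO2. Viability was read by MTT (0.2 mg/mL final, 4 h at 37° C), with DMSO-solubilized formazan measured at 540 nm.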
(In general: Tetrazolium dyes change colour on reduction, which living cells bring about.)

For the next assay, the system named is U2-OS. In words: Inhibition of cell growth, MTT assay, U2-OS. Format: cell-based. The following applies: Homo sapiens, U2OS. In short, it runs like this: as §1
The next assay concerns Saos-2. In words: Inhibition of cell growth, MTT assay, Saos-2. The note with it: Homo sapiens; Saos-2, MTT assay. The format is cell-based. The method in brief:
as §1

Assay [3] has as its system phosphorylation of the retinoblastoma protein (pRb) in HCT-116 cells. As to the kind of experiment: pRb immunoblotting (anti-Rb antibody). The note with it: five micromolar of each compound for 12 hours, western blot. The format is cell-based, human. As to the method:
(§2) The ability of compounds to inhibit phosphorylation of the retinoblastoma protein (pRb) was assessed by western blot analysis. An anti-Rb antibody was used to measure the conversion of hyper-phosphorylated pRb to hypo-phosphorylated pRb.
(§3) Human colon tumor cells (HCT-116 cells; 5×10^6) were plated on […] dishes and allowed to grow overnight. Five micromolar of each compound was added for 12 hours. The cells were then collected and centrifuged. The cell pellets were lysed by the addition of 100 μL lysis buffer (50 mM HEPES (pH 7.0), 250 mM NaCl, 5 mM ethylenediaminetetraacetic acid, 0.1% Nonidet P-40, 1 mM dithiothreitol, 2 mM sodium pyrophosphate, 1 mM sodium orthovanadate, 1 μg/ml aprotonin, 1 μg/ml leupeptin, 50 μg/ml phenylmethylsulfonyl fluoride). Forty micrograms of protein were separated by sodium dodecyl sulfate-polyacrylamide gel electrophoresis (SDS-PAGE) on a 6% gel. The proteins were transferred to nitrocellulose and blocked with 5% blocking buffer in Tris-buffered saline overnight. The anti-Rb antibody (Pharmingen), the anti-phospho-Rb (Ser 780) antibody (MBL), and secondary antibody were incubated for 1 hour at room temperature followed by three wash steps in 0.01% Tween-20 in Tris-buffered saline. The Rb protein was detected using chemiluminescence according to the manufacturer (Amersham).

For assay [4], the system named is pRb phosphorylation at serine 780 in HCT-116 cells. In words: pRb immunoblotting (anti-phospho-Rb (ser780) antibody). The following applies: five micromolar of each compound for 12 hours, western blot, anti-phospho-Rb (Ser 780) antibody. The format is cell-based, human. The method, then:
as §2, §3
On the technique in general: In western blotting, separated proteins are transferred to a membrane and probed.

Assay [5] deals with T4, complex of human CDK4 and genetically truncated (1-264) cyclin D3 (Homo sapiens, UniProt P11802).
T4 construct: made in house; host or cells: insect cells, co-infected with baculovirus
T4 sequence (P11802 whole entry, the tested form may be a part): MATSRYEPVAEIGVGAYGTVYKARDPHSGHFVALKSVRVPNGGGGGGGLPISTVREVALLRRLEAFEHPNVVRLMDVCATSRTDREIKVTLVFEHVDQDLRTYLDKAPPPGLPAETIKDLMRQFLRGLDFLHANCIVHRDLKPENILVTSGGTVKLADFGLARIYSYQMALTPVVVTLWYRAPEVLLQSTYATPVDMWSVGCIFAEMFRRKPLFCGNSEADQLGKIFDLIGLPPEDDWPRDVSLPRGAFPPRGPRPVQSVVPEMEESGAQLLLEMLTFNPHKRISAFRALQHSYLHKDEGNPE
T4 sequence (P30281 1-264 partner limits assumed): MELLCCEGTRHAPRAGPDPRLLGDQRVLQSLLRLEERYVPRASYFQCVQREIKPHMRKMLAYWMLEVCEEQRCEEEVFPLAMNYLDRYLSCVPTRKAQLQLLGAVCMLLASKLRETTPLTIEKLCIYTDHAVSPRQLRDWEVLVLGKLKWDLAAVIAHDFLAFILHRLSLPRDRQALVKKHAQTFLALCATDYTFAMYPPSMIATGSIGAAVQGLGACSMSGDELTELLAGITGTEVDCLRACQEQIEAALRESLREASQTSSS
In words: Inhibition of CDK4/cyclin D retinoblastoma kinase activity (D-type cyclin is truncated D3). Format: biochemical. The note with it: superscript c: D-type cyclin is truncated D3; read-out: Ki CDK 4/D. As to the method:
Cyclin-dependent kinase activity was measured by quantifying the enzyme-catalyzed, time-dependent incorporation of radioactive phosphate from [^32P]ATP or [^33P]ATP into a protein substrate. Unless noted otherwise, assays were performed in 96-well plates in a total volume of 50 μL, in the presence of 10 mM HEPES (N-[2-hydroxyethyl]piperazine-N′-[2-ethanesulfonic acid]) (pH 7.4), 10 mM MgCl2, 25 μM adenosine triphosphate (ATP), 1 mg/mL ovalbumin, 5 μg/mL leupeptin, 1 mM dithiothreitol, 10 mM β-glycerophosphate, 0.1 mM sodium vanadate, 1 mM sodium fluoride, 2.5 mM ethylene glycol-bis(β-aminoethyl ether)-N,N,N′N′-tetraacetic acid (EGTA), 2% (v/v) dimethylsulfoxide, and 0.03-0.4 μCi [^32/33P]ATP per reaction. Reactions were initiated with enzyme, incubated at 30° C., and terminated after 20 minutes by the addition of ethylenediaminetetraacetic acid (EDTA) to 250 mM. The phosphorylated substrate was then captured on a nitrocellulose or phosphocellulose membrane using a 96-well filtration manifold, and unincorporated radioactivity was removed by repeated washing with 0.85% phosphoric acid. Radioactivity was quantified by exposing the dried membranes to a phosphorimager.
Apparent Ki values were measured by assaying enzyme activity in the presence of different inhibitor compound concentrations and subtracting the background radioactivity measured in the absence of enzyme. The kinetic parameters (kcat, Km for ATP) were measured for each enzyme under the usual assay conditions by determining the dependence of initial rates on ATP concentration. Inhibition data were fit to an equation for competitive inhibition using Kaleidagraph (Synergy Software), or were fit to an equation for competitive tight-binding inhibition using the software KineTic (BioKin, Ltd.).
A complex of human CDK4 and cyclin D3, or a complex of cyclin D1 and a fusion protein of human CDK4 and gluathione-S-transferase (GST-CDK4), or a complex of human CDK4 and genetically truncated (1-264) cyclin D3, was purified using traditional biochemical chromatographic techniques from insect cells that had been co-infected with the corresponding baculovirus expression vectors (see e.g., Meijer and Kim, “Chemical Inhibitors of Cyclin-Dependent Kinases,” Methods in Enzymol,. vol. 283 (1997), pp. 113-128.). The enzyme complex (5 or 50 nM) was assayed with 0.3-0.5 μg of purified recombinant retinoblastoma protein fragment (Rb) as a substrate. The engineered Rb fragment (residues 386-928 of the native retinoblastoma protein; 62.3 kDa) contains the majority of the phosphorylation sites found in the native 106-kDa protein, as well as a tag of six histidine residues for ease of purification. Phosphorylated Rb substrate was captured by microfiltration on a nitrocellulose membrane and quantified using a phosphorimager as described above. For measurement of tight-binding inhibitors, the enzyme complex concentration was lowered to 5 nM, and the assay duration was extended to 60 minutes, during which the time-dependence of product formation was linear.

T1 sequence (P11802 whole entry): as the sequence (P11802 whole entry, the tested form may be a part) above
T1 sequence (P30281 whole entry partner): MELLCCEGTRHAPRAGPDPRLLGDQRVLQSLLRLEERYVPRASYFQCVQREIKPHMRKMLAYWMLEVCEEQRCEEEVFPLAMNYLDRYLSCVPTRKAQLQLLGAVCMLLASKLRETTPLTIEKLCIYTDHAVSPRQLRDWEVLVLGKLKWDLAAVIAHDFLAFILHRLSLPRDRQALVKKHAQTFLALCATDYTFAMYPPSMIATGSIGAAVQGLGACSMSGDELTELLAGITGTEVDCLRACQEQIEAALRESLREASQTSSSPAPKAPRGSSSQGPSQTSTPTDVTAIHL

The term IC50 denotes the point on the concentration scale where inhibition reaches its midpoint. Higher therefore signals weaker potency. As usually defined, the IC90 is the concentration at which the effect reaches the 90% level. The low end stands for an effect from little substance, the high end for a need for much substance. With `Nc1nc(Nc2ccc(S(N)(=O)=O)cc2)sc1C(=O)c1sc(Br)cc1Br` [C(73), 4-[4-Amino-5-(3,5-dibromo-thiophene-2-carbonyl)-thiazol-2-ylamino]-benzenesulfonamide], the Ki in assay [1] is 6.3 nM; at CDK2/cyclin A it was 6.8 nM; in assay [2] it was 20 nM. The IC50 in the assay on HCT116 was 1400 nM; in the assay with U2-OS it was 4100 nM; in the assay with Saos-2 it was 1300 nM. Also, the results for the IC90 with HCT116, in the assay on U2-OS and in the assay with Saos-2 were 3400 nM, 9500 nM and 5000 nM, respectively. Besides, the “Inhibits pRb phosphorylation” value in assay [3] is “+”. Further, the “Inhibits pRb (ser 780) phosphorylation” value in assay [4] is listed as “+”.

Take `Cc1cc([N+](=O)[O-])sc1C(=O)c1sc(Nc2ccc(N3CCN(C)CC3)cc2)nc1N` [C(94), {4-Amino-2-[4-(4-methyl-piperazin-1-yl)-phenylamino]-thiazol-5-yl}-(3-methyl-5-nitro-thiophen-2-yl)-methanone]: the values for the Ki (in [1]; at CDK2/cyclin A; in assay [2]) were 41 nM, 1040 nM and 1410 nM, respectively. For the same compound, the values for the IC50 in the assay on HCT116, in the assay on U2-OS and in the assay on Saos-2 were 1300 nM, 3400 nM and 2200 nM, respectively. The values for the IC90 in the assay on HCT116, in the assay with U2-OS and in the assay with Saos-2 were 3100 nM, 6000 nM and 5000 nM, respectively. Besides, in assay [3], the “Inhibits pRb phosphorylation” value is recorded as “+”. Also, the “Inhibits pRb (ser 780) phosphorylation” value in assay [4] was “+”.

For `Nc1nc(Nc2ccc(S(N)(=O)=O)cc2)sc1C(=O)c1c(F)cc(F)cc1F` [C(115), 4-[4-Amino-5-(2,4,6-trifluoro-benzoyl)-thiazol-2-yl-amino]-benzenesulfonamide], the Ki in [1] came out at 57 nM; in assay [5], 55 nM; at CDK2/cyclin A, 18 nM; in assay [2], 50 nM. Further, the IC50 in the assay with U2-OS is 2700 nM; in the assay with Saos-2, 800 nM. Also, the IC90 with U2-OS was 5000 nM; in the assay on Saos-2, 2200 nM.

For the compound `Cc1ccsc1C(=O)c1sc(Nc2ccc(N(C)CCN(C)C)cc2)nc1N` [C(117), (4-Amino-2-{4-[(2-dimethylamino-ethyl)-methyl-amino]-phenylamino}-thiazol-5-yl)-(3-methyl-thiophen-2-yl)-methanone], the results for the Ki (in assay [5]; at CDK2/cyclin A; in assay [2]) were 10 nM, 423 nM and 417 nM, respectively. Besides, the IC50 stood at 1800 nM in the assay with HCT116, 900 nM in the assay with U2-OS and 890 nM in the assay on Saos-2. The figures for the IC90 in the assay on HCT116, in the assay with U2-OS and in the assay with Saos-2 were 2900 nM, 1700 nM and 1500 nM, respectively.

As for `C[C@@H]1CN(c2ccc(Nc3nc(N)c(C(=O)c4c(F)cccc4F)s3)cc2)CCN1C` [C(124), {4-Amino-2-[4-(3R,4-dimethyl-piperazin-1-yl)-phenylamino]-thiazol-5-yl}-(2,6-difluoro-phenyl)-methanone], the values for the Ki (in assay [5]; at CDK2/cyclin A; in assay [2]) were 17 nM, 611 nM and 680 nM, respectively. In addition, the IC50 turned out to be 540 nM with HCT116, 1300 nM in the assay with U2-OS and 980 nM in the assay with Saos-2. For the same compound, the values for the IC90 with HCT116, in the assay with U2-OS and in the assay with Saos-2 were 1600 nM, 2500 nM and 1600 nM, respectively.

Take `C[C@H]1CN(c2ccc(Nc3nc(N)c(C(=O)c4c(F)cccc4F)s3)cc2)CCN1C` [C(125), {4-Amino-2-[4-(3S,4-dimethyl-piperazin-1-yl)-phenylamino]-thiazol-5-yl}-(2,6-difluoro-phenyl)-methanone]: the Ki in [5] stood at 5.4 nM; on CDK2/cyclin A, 602 nM; in [2], 650 nM. In addition, the IC50 in the assay with HCT116 came out at 620 nM; in the assay with U2-OS it was 1200 nM; in the assay with Saos-2 it was 900 nM. For the same compound, the IC90 turned out to be 1800 nM with HCT116, 2300 nM in the assay with U2-OS and 1500 nM in the assay with Saos-2.

`Nc1nc(Nc2ccc(N3CCNCC3)cc2)sc1C(=O)c1c(F)cc(F)cc1F` [J(3), [4-Amino-2-(4-piperazin-1-yl-phenylamino)-thiazol-5-yl]-(2,4,6-trifluoro-phenyl)-methanone]: the Ki in assay [1] turned out to be 15 nM; in [5], 19 nM; at CDK2/cyclin A, 572 nM; in assay [2], 2000 nM. In addition, the IC50 amounted to 900 nM in the assay with HCT116, 2900 nM in the assay with U2-OS and 2200 nM with Saos-2. In addition, the IC90 in the assay on HCT116 was 2800 nM; in the assay on U2-OS, 5200 nM; in the assay on Saos-2, 4900 nM.

As for `CC1(C)CN(c2ccc(Nc3nc(N)c(C(=O)c4c(F)cccc4F)s3)cc2)CCN1` [J(6), {4-Amino-2-[4-(3,3-dimethyl-piperazin-1-yl)-phenylamino]-thiazol-5-yl}-(2,6-difluoro-phenyl)-methanone], the results for the Ki (in [5]; at CDK2/cyclin A; in [2]) were 8.1 nM, 548 nM and 511 nM, respectively. The results for the IC50 with HCT116, in the assay on U2-OS and with Saos-2 were 260 nM, 510 nM and 470 nM, respectively. The results for the IC90 in the assay on HCT116, in the assay on U2-OS and in the assay on Saos-2 were 600 nM, 1300 nM and 770 nM, respectively.

For `NC(=O)C1CCN(c2ccc(Nc3nc(N)c(C(=O)c4c(F)cccc4F)s3)cc2)CC1` [L, {4-Amino-2-[4-(4-carboxamido-piperidin-1-yl)-phenylamino]-thiazol-5-yl}-(2,6-difluoro-phenyl)-methanone], the Ki in assay [5] was found to be 22 nM; in assay [2] it was 193 nM. In the assay with HCT116, this compound had an IC50 of over 12500 nM.

Values taken from US6569878B1, “Substituted 4-amino-thiazol-2-yl compounds as cyclin-dependent kinase inhibitors” (Agouron Pharmaceuticals Inc., priority 1997, dated 2003).
